Values of other authors as cited in patent publication US20240181106A1, “WATER-SOLUBLE PHOTOSENSITIVE COMPOSITION OF PHOTODYNAMIC ENVIRONMENTAL DISINFECTION AND METHOD OF ENVIRONMENTAL DISINFECTION BY USING THE SAME” (NATIONAL CHENG KUNG UNIVERSITY, priority 2022, published 2024).

safe single dose (60 kg-weight adult, every 4 hours): 120 mg
daily dose not to be exceeded (human): ≤ 7 mg/kg daily
maximum safe dose administered to a human (human): 2 mg/kg/single dose
Structure (SMILES): CN(C)c1ccc2nc3ccc(=[N+](C)C)cc-3sc2c1 [methylene blue]
